Measurements: US20130287890A1, “INHIBITOR OF THE PRODUCTION OF ADVANCED GLYCATION END PRODUCTS” (UENO FINE CHEMICALS INDUSTRY, LTD., priority 2012, published 2013)

How the values were obtained:
CML = experiment: Quantitative determination of CML after reaction at 37° C. for 42 days; assay type: biochemical; details: for CML: 37° C., 42 days
Procedure: (§1) Amino acid, carbohydrates and a phosphate buffer solution were charged in a 50 mL polypropylene centrifuge tube in each amount shown in Table 10, followed by sealing and stirring, and then the mixture was reacted in an incubator at 37° C. for 42 days. Next, the reactant was filtered through a 0.2 μm filter and the obtained filtrate was used as a sample. Amino acid and carbohydrates used are as follows:
Using CircuLex CML/Nε-(carboxymethyl) lysine ELISA kit (manufactured by CycLex Co., Ltd.), quantitative determination of CML was performed in the following manner. Thirty (30) or more minutes before use, reagents and CML solid-phase wells were put to room temperature. By adding 1 mL of ultrapure water (Milli-Q water) to a CML-HSA standard powder, a master standard was prepared. By performing dilution with standard dilution buffers, standards 1 to 7 were prepared. The sample was diluted as necessary with sample dilution buffers. A CML-HSA standard and 60 μL of the sample were dispensed into a 96-well plate, which is not an accessory to the kit. Next, ultrapure water (Milli-Q water) was added to a first antibody powder, and by diluting with sample dilution buffers, a first antibody solution was prepared; 60 μL of the antibody solution was dispensed into the plate and mixed. After 100 μL of the mixture was added to CML solid-phase wells, the mixture was reacted at 25° C. for 1 hour while being shaken at 300 rpm. Then, the reaction solution was discarded, and 350 μL of rinsing fluid was dispensed to wash the plate. The washing was performed for 4 times. After liquid on the plate was removed, 100 μL of a second antibody solution was dispensed and reacted at 25° C. for 1 hour while being shaken at 300 rpm. The reaction solution was discarded, and the plate was washed for 4 times with 350 μL of rinsing fluid again. Liquid on the plate was removed, and 100 μL of a color coupler was dispensed. Then, the solution was left to stand for 10 minutes under a light shielding condition while being shaken at 300 rpm. Finally, 100 μL of a reaction stop solution was dispensed, and within 30 minutes after the dispensing, measurement was performed at main wavelength 450 nm/reference wavelength 595 nm using a micro-plate reader. The concentration of CML was determined using the calibration curve of a CML standard solution, based on measurement values of the sample.
(§2) Biological proteins, carbohydrates and a phosphate buffer solution are charged in a 50 mL polypropylene centrifuge tube in each amount shown in Table 12, followed by sealing and stirring, and then the mixture was reacted in an incubator at 37° C. for 42 days. Next, the reactant was fractionated by centrifugation at 3,000 rpm for 3 hours using an ultrafiltration unit (VIVA SPIN 20, manufactured by Sartorius Corporation). The obtained low molecular weight fraction was used as a sample for determination of 3-DG, while the obtained high molecular weight fraction was used as a sample for the determination of fluorescent AGEs, pentosidine, CML, RAGE agonist activity and RAGE antagonist activity. Biological proteins and carbohydrates used are as follows:
(§3) In the same manner as in Test Example 4, except that the low molecular weight fraction prepared as mentioned above was used as a sample, quantitative determination of 3-DG was performed. In the same manner as in Test Example 4, except that the high molecular weight fraction was filtered through a 0.2 μm filter and the filtrate was used as a sample, fluorescent AGEs, pentosidine, CML, RAGE agonist activity and RAGE antagonist activity were evaluated.
(§4) Collagen, carbohydrates and a phosphate buffer solution were charged in a 50 mL polypropylene centrifuge tube in each amount shown in Table 14, followed by sealing and stirring, and then the mixture was reacted in an incubator at 37° C. for 42 days. […]

3-DG = experiment: Quantitative determination of 3-DG (HPLC) after reaction of amino acid or biological protein with carbohydrates at 37° C. for 42 days; assay type: biochemical; details: for 3-DG: 37° C., 42 days
Procedure: as §2, with “Amino acid or biological protein, carbohydrates” for “Biological proteins, carbohydrates”, “solution were” for “solution are”, “Table 8,” for “Table 12,”, “fluorescent AGEs. Amino acid, biological protein” for “fluorescent AGEs, pentosidine, CML, RAGE agonist activity and RAGE antagonist activity. Biological proteins”
In the same manner as in Test Example 1, except that the low molecular weight fraction prepared as mentioned above was used as a sample, quantitative determination of 3-DG was performed. In the same manner as in Test Example 2, except that the high molecular weight fraction prepared as mentioned above was used as a sample, determination of fluorescent AGEs was performed.
as §1
To 2 mL of a sample, the same amount of a 60% perchloric acid solution was added to deproteinize the sample. The sample was neutralized with 4 mL of an aqueous saturated sodium hydrogen carbonate solution and 0.8 mL of a 0.1% methanol solution of 2,3-diaminonaphthalene was added, and then the mixture was reacted at 4° C. for 16 hours. Next, the reactant was extracted with 4.4 mL of ethyl acetate, concentrated to dryness using an evaporator, dissolved in 5 mL of methanol, and then filtered through a 0.45 μm filter. The filtrate was subjected to high-performance liquid chromatography and 3-DG was quantitatively determined under the following measurement conditions.
Injection amount: 20 μL Column: TSK-GEL, ODS-80Ts (4.6×150 mm, manufactured by TOSOH CORPORATION) Column temperature: 30° C. Mobile phase: 50 mM phosphoric acid:methanol:acetonitrile=7:1.5:1.5 Flow rate: 1 mL/min.
as §2, §3
as §4, with “days. Next, the reactant was fractionated by centrifugation at 3,000 rpm for 3 hours using an ultrafiltration unit (VIVA SPIN 20, manufactured by Sartorius Corporation).” for “days.”

[1] = Test Example 4, amino acid 0.4 g + carbohydrate 1.8 g
[2] = Test Example 5, bovine serum albumin 0.4 g + carbohydrate 1.8 g
[3] = Test Example 5, human serum albumin 0.4 g + carbohydrate 1.8 g
[4] = Test Example 5, γ-globulin 0.4 g + carbohydrate 1.8 g
[5] = Test Example 6, collagen 0.015 g + carbohydrate 1.8 g, hydrolysed high molecular weight fraction
[6] = Test Example 6, collagen 0.015 g + carbohydrate 1.8 g
[7] = Test Example 3, amino acid (lysine:arginine 1:1) 0.4 g + glucose 1.8 g or maltitol 3.4 g
[8] = Test Example 3, bovine serum albumin 0.4 g + glucose 1.8 g or maltitol 3.4 g
[9] = Test Example 4, amino acid, compared with sections containing glucose and fructose
[10] = Test Example 5, bovine serum albumin, human serum albumin, γ-globulin, compared with sections containing fructose
[11] = Test Example 5, bovine serum albumin, human serum albumin, γ-globulin, compared with sections containing glucose
[12] = Test Example 6, collagen, compared with sections containing glucose and fructose

Row | SMILES | CML (CML; [1]) | CML (CML; [2]) | CML (CML; [3]) | CML (CML; [4]) | CML (CML; [5]) | 3-DG (3-DG; [1]) | 3-DG (3-DG; [2]) | 3-DG (3-DG; [3]) | 3-DG (3-DG; [4]) | 3-DG (3-DG; [6]) | 3-DG (3-DG; [7]) | 3-DG (3-DG; [8]) | also measured
1 | O=C(CO)[C@@H](O)[C@H](O)[C@H](O)CO [Fructose] | 519 nmol/1 mL of reaction solution | 1046 nmol/1 mL of reaction solution | 4626 nmol/1 mL of reaction solution | 3813 nmol/1 mL of reaction solution | 452 nmol/1 mL of reaction solution | 904 nmol/1 mL of reaction solution | 5316 nmol/1 mL of reaction solution | 2358 nmol/1 mL of reaction solution | 877 nmol/1 mL of reaction solution | 1447 nmol/1 mL of reaction solution |  |  | 
2 | O=C[C@H](O)[C@@H](O)[C@H](O)[C@H](O)CO [Glucose] | 1197 nmol/1 mL of reaction solution | 309 nmol/1 mL of reaction solution | 1749 nmol/1 mL of reaction solution | 3628 nmol/1 mL of reaction solution | 475 nmol/1 mL of reaction solution | 8310 nmol/1 mL of reaction solution | 10253 nmol/1 mL of reaction solution | 2575 nmol/1 mL of reaction solution | 877 nmol/1 mL of reaction solution | 232 nmol/1 mL of reaction solution | 22,761 nmol/1 g of protein | 29,938 nmol/1 g of protein | 
3 | OC[C@@H](O)[C@@H](O[C@H]1O[C@H](CO)[C@@H](O)[C@H](O)[C@H]1O)[C@H](O)[C@@H](O)CO [Maltitol] |  |  |  |  |  |  |  |  |  |  | 127 nmol/1 g of protein | 1,181 nmol/1 g of protein | production of 3-DG (3-DG; Test Example 3, amino acids and bovine serum albumin, compared with sections containing glucose): significantly decreased
4 | OC[C@@H](O)[C@@H](O)[C@H](O)[C@@H](O)CO [Sorbitol] | 57 nmol/1 mL of reaction solution | 10 nmol/1 mL of reaction solution | 69 nmol/1 mL of reaction solution | 29 nmol/1 mL of reaction solution | 445 nmol/1 mL of reaction solution | 13 nmol/1 mL of reaction solution | 33 nmol/1 mL of reaction solution | 78 nmol/1 mL of reaction solution | 21 nmol/1 mL of reaction solution | 24 nmol/1 mL of reaction solution |  |  | production of CML (CML; [9]): decreased; production of CML (CML; [10]): decreased; production of CML (CML; [11]): decreased; production of CML (CML; [12]): decreased; production of 3-DG (3-DG; [9]): significantly decreased; production of 3-DG (3-DG; [10]): significantly decreased; production of 3-DG (3-DG; [11]): decreased; production of 3-DG (3-DG; [12]): significantly decreased
